Each block holds one compound with its values, some of them ahead of it.
Columns and labels:
Format in all cases: physicochemical
[1] = Colour stability test, stress conditions: storage at 40° C.; conditions: stored at 40° C.
Description: The CIE b value was determined using a X-Rite® 918 apparatus (X-Rite Incorporated, 4300 44th St. SE, Grand Rapids, Mich. 49512 USA). A sample of 2 g of cefadroxil crystals was placed at the appropriate place of the apparatus and the CIE b value was read. The average of two separate readings was calculated. Cefadroxil (CDX) monohydrate crystals obtained by the one-step crystallisation process of the Reference Experiment A and the two-step crystallisation process according to the present invention were stored at a temperature of 40° C. The CIE b values of the different cefadroxil monohydrate crystals were determined at different time intervals as indicated in Table 1. CDX (1)-(3) were obtained from 3 different crystallisation processes.

[2] = Determination of the CIE b value (colour of crystals) after crystallisation; conditions: crystals after isolation and drying, t=0; monohydrate
Description: CIE is an abbreviation for the French title of the International Commission on Illumination: “Commission International de l'Eclairage”. The CIE b is a measure to determine the colour of crystals, which is a known technology for the skilled man in the art. An overview of the fundamentals of the CIE colorimetry system is given in Ohno, Y., Paper for IS&T NIO16 Conference, Vancouver, Canada, Oct. 16-20, 2000, p. 1-5. The CIE b value was determined using a X-Rite® 918 apparatus (X-Rite Incorporated, 4300 44th St. SE, Grand Rapids, Mich. 49512 USA). A sample of 2 g of cefadroxil crystals was placed at the appropriate place of the apparatus and the CIE b value was read. The average of two separate readings was calculated.

[3] = Colour stability test, storage at 25° C.; conditions: stored at 25° C.
Description: The CIE b value was determined using a X-Rite® 918 apparatus (X-Rite Incorporated, 4300 44th St. SE, Grand Rapids, Mich. 49512 USA). A sample of 2 g of cefadroxil crystals was placed at the appropriate place of the apparatus and the CIE b value was read. The average of two separate readings was calculated. The cefadroxil monohydrate crystals obtained with the one-step crystallisation process of Reference experiment A and a two-step crystallisation process according to the present invention were stored at 25° C.

CIE b value [2]: 4.52
SMILES: CC1=C(C(=O)O)N2C(=O)[C@@H](NC(=O)[C@H](N)c3ccc(O)cc3)[C@H]2SC1 [Example 2, cefadroxil monohydrate]

CIE b value [2]: 6.2
CIE b ([1]; 0 weeks, listed as CDX monohydrate crystals obtained by the one-step crystallisation process, monohydrate): 6.2
CIE b ([1]; 2 weeks, listed as CDX monohydrate crystals obtained by the one-step crystallisation process, monohydrate): 10.0
CIE b ([1]; 4 weeks, listed as CDX monohydrate crystals obtained by the one-step crystallisation process, monohydrate): 13.2
CIE b ([1]; 6 weeks): 15.6
CIE b ([1]; 8 weeks, listed as CDX monohydrate crystals obtained by the one-step crystallisation process, monohydrate): 17.0
CIE b ([1]; 12 weeks): 14.2
CIE b ([1]; 14 weeks): 18.2
CIE b ([1]; 18 weeks): 18.6
CIE b ([1]; 20 weeks, listed as CDX monohydrate crystals obtained by the one-step crystallisation process, monohydrate): 19.1
CIE b ([1]; 24 weeks, listed as CDX monohydrate crystals obtained by the one-step crystallisation process, monohydrate): 20.0
CIE b ([3]; 0 months, listed as one-step crystallization process, monohydrate): 6.2
CIE b ([3]; 3 months, listed as one-step crystallization process, monohydrate): 14.0
CIE b ([3]; 6 months, listed as one-step crystallization process, monohydrate): 14.7
CIE b ([3]; 9 months, listed as one-step crystallization process, monohydrate): 15.1
CIE b ([3]; 12 months): 15.5
CIE b ([3]; 18 months): 17.7
SMILES: CC1=C(C(=O)O)N2C(=O)[C@@H](NC(=O)[C@H](N)c3ccc(O)cc3)[C@H]2SC1 [Reference Experiment A, cefadroxil monohydrate]

CIE b ([3]; 0 months, monohydrate): 4.8
CIE b ([3]; 3 months, monohydrate): 5.8
CIE b ([3]; 6 months, monohydrate): 6.0
CIE b ([3]; 9 months, monohydrate): 6.3
SMILES: CC1=C(C(=O)O)N2C(=O)[C@@H](NC(=O)[C@H](N)c3ccc(O)cc3)[C@H]2SC1 [two-step crystallization process, cefadroxil monohydrate]

More lines, now with the values behind:

SMILES: CC1=C(C(=O)O)N2C(=O)[C@@H](NC(=O)[C@H](N)c3ccc(O)cc3)[C@H]2SC1 [CDX (1), cefadroxil monohydrate]
CIE b ([1]; 0 weeks, monohydrate): 4.8
CIE b ([1]; 4 weeks, monohydrate): 6.6
CIE b ([1]; 8 weeks, monohydrate): 9.1
CIE b ([1]; 12 weeks, monohydrate): 10.4
CIE b ([1]; 20 weeks, monohydrate): 12.4
CIE b ([1]; 24 weeks, monohydrate): 12.9

SMILES: CC1=C(C(=O)O)N2C(=O)[C@@H](NC(=O)[C@H](N)c3ccc(O)cc3)[C@H]2SC1 [CDX (2), cefadroxil monohydrate]
CIE b ([1]; 0 weeks, monohydrate): 4.4
CIE b ([1]; 2 weeks, monohydrate): 4.8
CIE b ([1]; 4 weeks, monohydrate): 5.1

SMILES: CC1=C(C(=O)O)N2C(=O)[C@@H](NC(=O)[C@H](N)c3ccc(O)cc3)[C@H]2SC1 [CDX (3), cefadroxil monohydrate]
CIE b ([1]; 0 weeks, monohydrate): 3.1
CIE b ([1]; 2 weeks, monohydrate): 3.0
CIE b ([1]; 4 weeks, monohydrate): 4.6

SMILES: CC1=C(C(=O)O)N2C(=O)[C@@H](NC(=O)[C@H](N)c3ccc(O)cc3)[C@H]2SC1 [Example 1, cefadroxil monohydrate]
CIE b value [2]: 4.68

— patent US20130217659A1, “PROCESS FOR THE CRYSTALLISATION OF CEFADROXIL MONOHYDRATE” (DSM SINOCHEM PHARMACEUTICALS NETHERLANDS B.V., priority 2006, published 2013)
